One compound from US20240424019A1, “SHP1 MODIFIED DENDRITIC CELLS AND EXTRACELLULAR VESICLES DERIVED THEREFROM AND ASSOCIATED METHODS” (BOARD OF REGENTS, THE UNIVERSITY OF TEXAS SYSTEM, priority 2021, published 2024) can be followed below.

One assay relates to B16-GMCSF melanoma. The assay is described as follows: B16-GMCSF melanoma model. It counts as in vivo, mouse. The following applies: intradermal implants, C57BL/6 mice, 3 mg/kg oral daily, day 19, vs vehicle, n=5.
For the next assay, the system named is human iPSC-DCs. The assay is described as follows: Activation of human iPSC-derived DCs by flow cytometry. It counts as cell-based. The following applies: vitamin E 50 μg/ml or TPI-1 1 μg/ml, 72 h, gated on CD11c+. An excerpt: FIG. 10A: Representative high magnification photomicrographs (100×, 200×, 400×) illustrating the morphology of colonies and individual cells of fully differentiated iPSC-derived DCs (iPSC-DCs) displaying characteristic DC morphology consisting of protrusions and veils of cytoplasm at the end of the differentiation procedure (day 23) after using the differentiation protocol for the addition and withdrawal of growth factors and cytokines. FIG. 10B: Phenotypic characterization of generated human iPSC-DCs. Representative flow cytometry analysis depicting the expression of DC lineage markers by iPSC-DCs gated on the CD11c+ population. Levels of expression of individual markers are shown as red histograms, while non-specific staining by isotype controls is shown as light blue histograms. FIG. 10C: Phenotypic characterization of human iPSC-DCs after treatment with vitamin E or TPI-1 to inhibit SHP1. Representative flow cytometry analysis (left panel) and quantification (right panel) depicting the expression of indicated activity markers by iPSC-DCs gated on the CD11c+population with the treatment of vehicle, vitamin E (50 μg/ml) or TPI-1 (1 μg/ml) for 72 h.
We explored the feasibility of differentiating populations of primary DCs from iPSCs and characterized the phenotype of iPSC-DC with the pharmacological inhibition of SHP1 by vitamin E or TPI-1. […]

`O=C1C=CC(=O)C(c2cc(Cl)ccc2Cl)=C1` [TPI-1, 2-(2,5-dichlorophenyl)-2,5-cyclohexadiene-1,4-dione]: the mean tumor volume entry in the assay on B16-GMCSF melanoma is reported as “significantly smaller tumor volume”. Further, the “expression of DC activation markers on iPSC-DCs” value in the assay on human iPSC-DCs was “increased expression of DC activation markers CD40 and CD86”.
